Test results published in paper PMC10526274, “Epithelial-Immune Cell Crosstalk Determines the Activation of Immune Cells In Vitro by the Human Cathelicidin LL-37 at Low Physiological Concentrations” (Biomolecules, 2023).
Values joined by “and” are separate entries in the source; they are usually repeats but may differ in a detail not shown here. Equal entries are not always repeated.

Tested on: Caco-2 cells
Test: Multiplex xMAP cytokine levels, Caco-2 epithelial barrier alone stimulated with LL-37
Assay type: cell-based, human
Settings: Caco-2 alone, 1 µM LL-37, 24 h, n=2
Protocol: Caco-2 cell line (ATCC HTB-37) was cultured in a humidified CO2-incubator (5% CO2, 37 °C) in the complete DMEM/F12 (1:1) medium (Gibco, Waltham, MA, USA) containing 10% fetal bovine serum (FBS, Gibco) and 1X antibiotic–antimycotic solution (Gibco). To stabilize the cell phenotype, Caco-2 cells have been subcultivated three times before seeding on the filter supports. Then, Caco-2 cells were seeded at a density of 2 × 10^5 cells/cm^2 onto 24-well Millicell cell culture inserts (PC, 0.4-μm pore size, 0.6 cm^2 surface area, cat. #PIHP01250) (Millipore, Burlington, MA, USA), precoated with 0.2% bovine gelatin (Sigma-Aldrich, Saint Louis, MO, USA). After seeding, Caco-2 cells were grown in the same complete medium with re-feeding every 2–3 days until polarization of the monolayer occurred. The functional polarity of the monolayers was developed when transepithelial electrical resistance (TEER) between the apical and basolateral surfaces of the monolayers reached […] as measured by the electrical resistance system Millicell-ERS Voltohmmeter (Millipore, Burlington, MA, USA). Grown cell monolayers were used in transport and cytokine production experiments between the 21st and 29th days.
Primary blood monocytes, moDCs, and NKT cells were seeded in 600 µL of complete RPMI-1640 with 10% Human AB serum (Capricorn Scientific, Ebsdorfergrund, Germany) and supplemented with 1X antibiotic–antimycotic solution into the wells of 24-well plates at a density of 3–7 × 10^5 cells/well 24 h before the experiment. Then, 24 h later, the medium in each well was replaced by the same medium with 1 µM of LL-37 for the sample wells or fresh medium alone for the control wells, and the permeable inserts with the Caco-2 monolayer with TEER > 400 Ω × cm^2, containing 400 μL of the complete medium in their apical chamber, were immediately placed into the appropriate wells. Also, inserts with the Caco-2 monolayer were placed in cell-free wells of 24-well plates in the same complete RPMI-1640 medium with or without 1 µM of LL-37 as controls. Cells were kept in a CO2-incubator (5% CO2, 37 °C) for another 24 h. Then, culture medium from each well was collected, centrifuged, and frozen at −70 °C.
To quantitatively evaluate a broad spectrum of analytes secreted by human cell cultures at the protein level, multiplex xMAP technology was used. The chosen panel (cat. #HCYTA-60K-PX48, Merck, Darmstadt, Germany) included 48 different magnetic beads with primary antibodies to the following cytokines, chemokines, and growth factors: CCL11 (Eotaxin-1), Flt-3 ligand, CX3CL1 (Fractalkine), sCD40L, FGF-2, EGF, GROα, GM-CSF, G-CSF, IL-1RA, IL-1α, IL-1β, IL-2, IL-3, IL-4, IL-5, IL-6, IL-7, CXCL8 (IL-8), IL-9, IL-10, IL-12p40, IL-12p70, IL-13, IL-15, IL-17A (CTLA8), IL-17E (IL-25), IL-17F, IL-18, IL-22, IL-27, IFNγ, IFNα2, CXCL10 (IP-10), CCL2 (MCP-1), CCL7 (MCP-3), CCL22 (MDC), CXCL9 (MIG), CCL3 (MIP-1α), CCL4 (MIP-1β), CCL5 (RANTES), M-CSF, PDGF-AA, PDGF-AB/BB, TNFα, TNFβ, TGFα, and VEGF-A. The assay was performed in accordance with the manufacturer’s instructions with overnight incubation of the samples with primary antibodies, and the plate was read on a MAGPIX System (Merck) using the xPONENT 4.2 software (Merck). The acquired fluorescence data were analyzed by the MILLIPLEX Analyst v5.1 software (Merck), which realized an advanced curve-fitting algorithm. Levels of the analytes in control and experimental samples were compared with an unpaired two-sample t-test using GraphPad Prism v.8.0.1 (GraphPad Software, Inc., San Diego, CA, USA). The p-values ≤ 0.05 were considered significant.

LL-37: the only human cathelicidin, host defense antimicrobial peptide of 37 a.a. residues, produced by solid-phase peptide synthesis
MIP-1b level (control 0.3): 3.42 pg/mL
IL-18 level (control 0.98): 0.33 pg/mL
IL-9 level (control 1.09): 1.7 pg/mL
IL-6 level (control 1.75): 9.84 pg/mL
MIP-1a level (control 2.06): 5.65 pg/mL
EGF level (control 2.26): <1.60↓ pg/ml
IP-10 level (control 4.18): 2.9 pg/mL
IL-4 level (control 4.8): 6.56 pg/mL
MCP-3 level (control 7.84): 8.72 pg/mL
sCD40L level (control 12.72): 23.6 pg/mL
TNFb level (control 12.91, p = 0.02): 18.9 pg/mL and 18.87 pg/mL
GROa level (control 18.09): 27.89 pg/mL
PDGF-AB/BB level (control 22.83): 29.35 pg/mL
IL-13 level (control 25.51): 32.02 pg/mL
FGF-2 level (control 25.68): 16.73 pg/mL
IL-22 level (control 27.2, p = 0.013): 39 pg/mL and 39.52 pg/mL
IL-8 level (control 28.45, p = 0.16): 86 pg/mL and 86.32 pg/mL
IL-27 level (control 41.5): 35.81 pg/mL
MCP-1 level (control 55.94): 100.47 pg/mL
PDGF-AA level (control 164.04): 149.4 pg/mL
VEGFa level (control 960.31): 2088 pg/mL
IL-7 level (control <0.30): <0.30↓ pg/ml
MDC level (control <0.31): <0.31↓ pg/ml
IL-5 level (control <0.35): <0.35↓ pg/ml
IL-2 level (control <0.36): <0.36↓ pg/ml
FLT-3L level (control <0.51): <0.51↓ pg/ml
IL-3 level (control <0.55): <0.55↓ pg/ml
RANTES level (control <0.64): <0.64↓ pg/ml
TGF-a level (control <0.68): <0.68↓ pg/ml
IL-17A level (control <0.70): <0.70↓ pg/ml
IFNg level (control <0.73): <0.73↓ pg/ml
IL-1b level (control <0.74): <0.74↓ pg/ml
GM-CSF level (control <0.76): <0.76↓ pg/ml
IL-1RA level (control <0.93): <0.93↓ pg/ml
IL-1a level (control <1.30): <1.30↓ pg/ml
IL-10 level (control <1.35): <1.35↓ pg/ml
IL-15 level (control <1.54): <1.54↓ pg/ml
IL-12 (p70) level (control <1.71): <1.71↓ pg/ml
G-CSF level (control <2.32): <2.32↓ pg/ml
Eotaxin level (control <2.91): <2.91↓ pg/ml
IL-12 (p40) level (control <3.33): <3.33↓ pg/ml
MIG level (control <3.38): <3.38↓ pg/ml
IFNa2 level (control <3.88): <3.88↓ pg/ml
TNFa level (control <3.88): <3.88↓ pg/ml
IL-17F level (control <12.19): <12.19↓ pg/ml
Fractalkine level (control <18.09): <18.09↓ pg/ml
IL-17E/IL-25 level (control <19.43): <19.43↓ pg/ml
M-GSF level (control <24.21): <24.21↓ pg/ml
